# According to patent publication US9980943B2, “Methods of treating muscular dystrophy” (BOARD OF REGENTS OF THE NEVADA SYSTEM OF HIGHER EDUCATION, …, priority 2013, dated 2018):
# How the values were obtained:
# Type in all cases: cell-based, mouse
# [1] = test system: β-galactosidase in CMV-LacZ C2C12 myotubes; experiment: CMV-LacZ secondary screen in C2C12 myotubes (β-Gal stabilizing assay); conditions: for CMV-LACZ in Myotubes (β-galactosidase activity relative to DMSO): CMV-LacZ C2C12 myotubes, 96-well format
# Outline: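 Stable CMV-LacZ C2C12 clone; six-point curve 0.5–40 μM; duplicates.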
# [2] = test system: α7 integrin (LacZ reporter in α7+/LacZ myotubes); experiment: Myotube α7 integrin FDG assay (Burkin assay in myotubes, 96-well); conditions: myotubes
# [3] = test system: α7 integrin (LacZ reporter in α7βgal+/− myoblasts); experiment: Myoblast α7+/LacZ integrin FDG assay (Burkin assay in myoblasts, 96-well); conditions: α7+/LacZ myoblasts, 96-well
# [4] = 5 uM, C2C12 CMV-LacZ myotubes, fold relative to DMSO
# [5] = 10 uM, C2C12 CMV-LacZ myotubes, fold relative to DMSO
# [6] = 20 uM, C2C12 CMV-LacZ myotubes, fold relative to DMSO
# [7] = 40 uM, C2C12 CMV-LacZ myotubes, fold relative to DMSO
SMILES,"CMV-LACZ in Myotubes, signal relative to DMSO [1, 4]","CMV-LACZ in Myotubes, signal relative to DMSO [1, 5]","CMV-LACZ in Myotubes, signal relative to DMSO [1, 6]","CMV-LACZ in Myotubes, signal relative to DMSO [1, 7]","Burkin Assay in Myotubes, α7 integrin LacZ reporter signal relative to DMSO ([2]; 0.5 uM)","Burkin Assay in Myotubes, α7 integrin LacZ reporter signal relative to DMSO ([2]; 1 uM)","Burkin Assay in Myotubes, α7 integrin LacZ reporter signal relative to DMSO ([2]; 5 uM)","Burkin Assay in Myotubes, α7 integrin LacZ reporter signal relative to DMSO ([2]; 10 uM)","Burkin Assay in Myotubes, α7 integrin LacZ reporter signal relative to DMSO ([2]; 20 uM)","Burkin Assay in Myotubes, α7 integrin LacZ reporter signal relative to DMSO ([2]; 40 uM)","Burkin Assay in Myoblasts, signal relative to DMSO ([3]; 0.5 uM)","Burkin Assay in Myoblasts, signal relative to DMSO ([3]; 1 uM)","Burkin Assay in Myoblasts, signal relative to DMSO ([3]; 5 uM)","Burkin Assay in Myoblasts, signal relative to DMSO ([3]; 10 uM)","Burkin Assay in Myoblasts, signal relative to DMSO ([3]; 20 uM)","Burkin Assay in Myoblasts, signal relative to DMSO ([3]; 40 uM)",other results
CCCCS(=O)(=O)N1CCCC(C(=O)NCCc2ccccc2)C1 (centres unmarked) [MLS001163121-01],,,,,,,,,,,,,,,,,"CMV-LACZ in Myotubes (β-galactosidase activity relative to DMSO) ([1]; 5 uM): 0.8506; CMV-LACZ in Myotubes (β-galactosidase activity relative to DMSO) ([1]; 10 uM): 0.8294; CMV-LACZ in Myotubes (β-galactosidase activity relative to DMSO) ([1]; 20 uM): 0.8781; CMV-LACZ in Myotubes (β-galactosidase activity relative to DMSO) ([1]; 40 uM): 0.9211; Burkin Assay in Myotubes (signal relative to DMSO) ([2]; 0.5 uM): 1.052; Burkin Assay in Myotubes (signal relative to DMSO) ([2]; 1 uM): 0.9895; Burkin Assay in Myotubes (signal relative to DMSO) ([2]; 5 uM): 0.9395; Burkin Assay in Myotubes (signal relative to DMSO) ([2]; 10 uM): 1.173; Burkin Assay in Myotubes (signal relative to DMSO) ([2]; 20 uM): 1.07; Burkin Assay in Myotubes (signal relative to DMSO) ([2]; 40 uM): 1.09; Burkin Assay in Myoblasts, value relative to DMSO ([3]; 0.5 uM): 1.049; Burkin Assay in Myoblasts, value relative to DMSO ([3]; 1 uM): 1.012; Burkin Assay in Myoblasts, value relative to DMSO ([3]; 5 uM): 0.9488; Burkin Assay in Myoblasts, value relative to DMSO ([3]; 10 uM): 0.9907; Burkin Assay in Myoblasts, value relative to DMSO ([3]; 20 uM): 0.8074; Burkin Assay in Myoblasts, value relative to DMSO ([3]; 40 uM): 0.9157"
Cn1c(=O)c2c(nc(Sc3ncnn3CC(=O)NC3CCCCC3)n2C)n(C)c1=O [MLS000663651-01],0.9636,0.9788,0.949,0.861,0.946,0.9099,1.106,1.007,1.017,0.9648,1.143,1.059,0.9834,0.9551,0.9504,1.048,
COc1ccc(S(=O)(=O)N2CCCCCC2)cc1C(=O)N1CCN(c2ccccc2O)CC1 [MLS001150751-01],0.9134,0.8336,0.992,0.889,1.0993,0.9504,1.254,1.023,1.0842,0.5343,1.114,1.059,0.9941,0.9573,1.079,0.8454,
CCOc1ccc(NC(=O)CN2C(=O)S/C(=C/c3cccn3C)C2=O)cc1 [MLS000702680-01],1.008,1.107,1.233,1.181,1.016,0.9196,0.9678,0.7773,0.8074,0.7464,0.845,0.8804,0.8623,0.8908,0.6925,0.6264,
O=C(NCCCn1ccnc1)/C(=C/c1cccs1)NC(=O)c1ccco1 [MLS000712769-01],0.9651,1.071,0.9141,0.8582,,,,,,,,,,,,,"Burkin Assay in Myotubes (signal relative to DMSO) ([2]; 0.5 uM): 0.9746; Burkin Assay in Myotubes (signal relative to DMSO) ([2]; 1 uM): 0.8428; Burkin Assay in Myotubes (signal relative to DMSO) ([2]; 5 uM): 1.2524; Burkin Assay in Myotubes (signal relative to DMSO) ([2]; 10 uM): 0.9038; Burkin Assay in Myotubes (signal relative to DMSO) ([2]; 20 uM): 0.9219; Burkin Assay in Myotubes (signal relative to DMSO) ([2]; 40 uM): 0.9817; Burkin Assay in Myoblasts, value relative to DMSO ([3]; 0.5 uM): 1.055; Burkin Assay in Myoblasts, value relative to DMSO ([3]; 1 uM): 1.059; Burkin Assay in Myoblasts, value relative to DMSO ([3]; 5 uM): 0.9476; Burkin Assay in Myoblasts, value relative to DMSO ([3]; 10 uM): 0.9286; Burkin Assay in Myoblasts, value relative to DMSO ([3]; 20 uM): 0.7697; Burkin Assay in Myoblasts, value relative to DMSO ([3]; 40 uM): 0.7893"
CCCCN(CCCC)CCNC(=O)c1cn(C)c2ccc(S(=O)(=O)N(C)C3CCCCC3)cc2c1=O [MLS000913117-01],0.8036,0.8262,0.5938,0.6538,1.09,1.208,0.9655,0.6623,0.495,0.3911,0.9085,0.9155,0.9138,0.6729,0.1952,0.05713,
O=C(NCCc1ccc(F)cc1)N[C@@H](Cc1ccccc1)C(=O)O [MLS001214704-01],,,,,,,,,,,,,,,,,"fold induction at 5 µM ([1]; Mus musculus, C2C12, read-out: CMV-LACZ in Myotubes, signal relative to DMSO, 5 uM, C2C12 CMV-LacZ myotubes, fold relative to DMSO): 0.885; fold induction at 10 µM ([1]; Mus musculus, C2C12, read-out: CMV-LACZ in Myotubes, signal relative to DMSO, 10 uM, C2C12 CMV-LacZ myotubes, fold relative to DMSO): 1.28; fold induction at 20 µM ([1]; Mus musculus, C2C12, read-out: CMV-LACZ in Myotubes, signal relative to DMSO, 20 uM, C2C12 CMV-LacZ myotubes, fold relative to DMSO): 0.933; fold induction at 40 µM ([1]; Mus musculus, C2C12, read-out: CMV-LACZ in Myotubes, signal relative to DMSO, 40 uM, C2C12 CMV-LacZ myotubes, fold relative to DMSO): 0.914; fold induction at 0.5 µM ([2]; Mus musculus, Myotube, 0.5 uM, read-out: Burkin Assay in Myotubes (signal relative to DMSO)): 0.976; fold induction at 1 µM ([2]; Mus musculus, Myotube, 1 uM, read-out: Burkin Assay in Myotubes (signal relative to DMSO)): 1.11; fold induction at 5 µM ([2]; Mus musculus, Myotube, 5 uM, read-out: Burkin Assay in Myotubes (signal relative to DMSO)): 1.07; fold induction at 10 µM ([2]; Mus musculus, Myotube, 10 uM, read-out: Burkin Assay in Myotubes (signal relative to DMSO)): 1.11; fold induction at 20 µM ([2]; Mus musculus, Myotube, 20 uM, read-out: Burkin Assay in Myotubes (signal relative to DMSO)): 1.06; fold induction at 40 µM ([2]; Mus musculus, Myotube, 40 uM, read-out: Burkin Assay in Myotubes (signal relative to DMSO)): 1.16; fold induction at 0.5 µM ([3]; Mus musculus, Myoblast, 48 h, 0.5 uM, read-out: Burkin Assay in Myoblasts, value relative to DMSO): 1.11; fold induction at 1 µM ([3]; Mus musculus, Myoblast, 48 h, 1 uM, read-out: Burkin Assay in Myoblasts, value relative to DMSO): 1.3; fold induction at 5 µM ([3]; Mus musculus, Myoblast, 48 h, 5 uM, read-out: Burkin Assay in Myoblasts, value relative to DMSO): 1.08; fold induction at 10 µM ([3]; Mus musculus, Myoblast, 48 h, 10 uM, read-out: Burkin Assay in Myoblasts, value relative to DMSO): 1.19; fold induction at 20 µM ([3]; Mus musculus, Myoblast, 48 h, 20 uM, read-out: Burkin Assay in Myoblasts, value relative to DMSO): 0.985; fold induction at 40 µM ([3]; Mus musculus, Myoblast, 48 h, 40 uM, read-out: Burkin Assay in Myoblasts, value relative to DMSO): 1.05"
Cc1ccc(NS(=O)(=O)c2ccc3c(c2)NC(=O)CCS3)c(Br)c1 [MLS001095231-01],1.035,0.7409,0.9181,0.6229,1.005,0.9382,1.022,0.9695,0.9863,0.8356,0.9692,0.9682,0.9242,0.8637,0.9197,0.728,
